The results in this text go back to PubChem BioAssay AID248 (DTP/NCI, 2004).

This assay has as its system L1210 leukemia ip in BDF1 mice, survival T/C. The assay can be described thus: NCI In Vivo Anticancer Drug Screen. Data for tumor model L1210 Leukemia (intraperitoneal) in B6D2F1 (BDF1) mice. Conditions: endpoint: mean survival time, higher = longer survival. Put shortly: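 Mice bearing the transplanted tumor received compound or vehicle. Survival of the treated group was divided by that of the vehicle-treated control group to give the ratio.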

The mark [1] stands for this setting: dose: 50.0 mg/kg/injection, schedule: Q01DX001 (ip), vehicle: carboxymethylcellulose (CMC).
Where [2] appears, read: dose: 100.0 mg/kg/injection, schedule: Q01DX001 (ip), vehicle: carboxymethylcellulose (CMC).
Where [3] appears, read: dose: 200.0 mg/kg/injection, schedule: Q01DX001 (ip), vehicle: carboxymethylcellulose (CMC).
Setting [4] is: dose: 100.0 mg/kg/injection, schedule: Q01DX009 (ip), vehicle: saline.
[5] abbreviates: dose: 100.0 mg/kg/injection, schedule: Q04DX003 (ip), vehicle: saline.
Setting [6] is: dose: 200.0 mg/kg/injection, schedule: Q01DX009 (ip), vehicle: saline.
Setting [7] is: dose: 200.0 mg/kg/injection, schedule: Q04DX003 (ip), vehicle: saline.
[8] abbreviates: dose: 400.0 mg/kg/injection, schedule: Q01DX009 (ip), vehicle: saline.
Where [9] appears, read: dose: 400.0 mg/kg/injection, schedule: Q04DX003 (ip), vehicle: saline.
Setting [10] is: dose: 100.0 mg/kg/injection, schedule: Q01DX001 (ip), vehicle: saline.
[11] abbreviates: dose: 200.0 mg/kg/injection, schedule: Q01DX001 (ip), vehicle: saline.
Where [12] appears, read: dose: 400.0 mg/kg/injection, schedule: Q01DX001 (ip), vehicle: saline.
Where [13] appears, read: dose: 100.0 mg/kg/injection, schedule: Q01DX009 (ip), vehicle: saline with Tween-80.
[14] abbreviates: dose: 100.0 mg/kg/injection, schedule: Q04DX003 (ip), vehicle: saline with Tween-80.
Where [15] appears, read: dose: 200.0 mg/kg/injection, schedule: Q01DX009 (ip), vehicle: saline with Tween-80.
[16] abbreviates: dose: 200.0 mg/kg/injection, schedule: Q04DX003 (ip), vehicle: saline with Tween-80.
[17] abbreviates: dose: 400.0 mg/kg/injection, schedule: Q01DX009 (ip), vehicle: saline with Tween-80.
The mark [18] stands for this setting: dose: 400.0 mg/kg/injection, schedule: Q04DX003 (ip), vehicle: saline with Tween-80.

The structures appear in SMILES notation. Where “and” joins values, the source holds several entries; their conditions need not be identical. Equal entries are not always repeated. Inconclusive results and toxic doses are left out.

Consider `CC(=O)OC1CCC2(C)C(CCC3C2CC(OC(C)=O)C2(C)C3CCC2C2(C)SCCS2)C1` (stereo not drawn), for which the T/C reads like this: (dose: 100.0 mg/kg/injection, schedule: Q04DX002 (ip), vehicle: Klucel (hydroxypropylcellulose) (HPC)) 94 % of control; (dose: 400.0 mg/kg/injection, schedule: Q04DX002 (ip), vehicle: Klucel (hydroxypropylcellulose) (HPC)) 87 % of control.
Consider `c1ccc(N2CCN(c3c4ccccc4nc4ccccc34)CC2)cc1`, for which the T/C is 105 % of control (dose: 75.0 mg/kg/injection, schedule: Q01DX001 (ip), vehicle: Klucel (hydroxypropylcellulose) (HPC)); 105 % of control (dose: 150.0 mg/kg/injection, schedule: Q01DX001 (ip), vehicle: Klucel (hydroxypropylcellulose) (HPC)); 96 % of control (dose: 300.0 mg/kg/injection, schedule: Q01DX001 (ip), vehicle: Klucel (hydroxypropylcellulose) (HPC)).
As for `COc1ccc(CN2CCCN(Cc3ccc(OC)cc3OC)C2c2ccc(N(CCCl)CCCl)cc2C)c(OC)c1`, the T/C under setting [1] was 106 % of control; the T/C under setting [2] is 104 % of control; the T/C under setting [3] was 106 % of control; the T/C (dose: 400.0 mg/kg/injection, schedule: Q01DX001 (ip), vehicle: carboxymethylcellulose (CMC)) was 112 % of control.
Regarding `CCOC(=O)/C=C/c1c[nH]c(=O)[nH]c1=O`, the T/C was 109 % of control under setting [4]; 103 % of control under setting [5]; 111 % of control under setting [6]; 97 % of control under setting [7]; 105 % of control under setting [8]; 94 % of control under setting [9].
Take `O=[N+]([O-])c1cc(Br)c(Br)cc1N1CCCC1`: the T/C was 98 % of control under setting [5], 88 % of control under setting [7] and 86 % of control under setting [9].
As for `CO/C=C(\C)C(=O)NC(=O)Nc1ccccc1`, the T/C was 93 % of control (dose: 100.0 mg/kg/injection, schedule: Q01DX001 (ip), vehicle: other); 98 % of control (dose: 200.0 mg/kg/injection, schedule: Q01DX001 (ip), vehicle: other); 96 % of control (dose: 400.0 mg/kg/injection, schedule: Q01DX001 (ip), vehicle: other).
As to `O=c1cc(C[n+]2ccccc2)[nH]c(=O)[nH]1`, the T/C is 89 % of control under setting [5] and 89 % of control under setting [7].
Turning to `c1ccc(SCc2cccnc2)nc1`, the T/C was 97 % of control under setting [10], 88 % of control under setting [11] and 94 % of control under setting [12].
In the case of `CCOC(=O)C(C(=O)O)C(C)C` (stereo not drawn), the T/C was 97 % of control under setting [10] and 93 % of control under setting [11].
Take `O=c1[nH]c(C(F)(F)F)nc2c1nc1n2CCC1`: the T/C by setting is: under setting [13], 103 % of control; under setting [14], 91 % of control; under setting [15], 102 % of control; under setting [16], 96 % of control; under setting [17], 97 % of control; under setting [18], 86 % of control.
As for `COc1cc(N(CCCl)CCCl)c(OC)cc1/C=N\NC(=O)CN(C)C`, the T/C is, setting by setting: (dose: 2.25 mg/kg/injection, schedule: Q01DX015 (ip), vehicle: saline) 105 % of control; (dose: 4.5 mg/kg/injection, schedule: Q01DX015 (ip), vehicle: saline) 108 % of control; (dose: 6.25 mg/kg/injection, schedule: Q01DX015 (ip), vehicle: saline) 119 % of control; (dose: 9.0 mg/kg/injection, schedule: Q01DX015 (ip), vehicle: saline) 116 % of control; (dose: 10.5 mg/kg/injection, schedule: Q01DX015 (ip), vehicle: saline) 114 % of control; (dose: 12.5 mg/kg/injection, schedule: Q01DX015 (ip), vehicle: saline) 115 % of control. For the same compound, the T/C is 111 % of control and 116 % of control (dose: 18.0 mg/kg/injection, schedule: Q01DX015 (ip), vehicle: saline); 96 % of control (dose: 25.0 mg/kg/injection, schedule: Q01DX015 (ip), vehicle: saline); 88 % of control (dose: 30.0 mg/kg/injection, schedule: Q01DX015 (ip), vehicle: saline); 94 % of control (dose: 36.0 mg/kg/injection, schedule: Q01DX015 (ip), vehicle: saline); 120 % of control (dose: 44.7 mg/kg/injection, schedule: Q01DX001 (ip), vehicle: saline); 90 % of control (dose: 50.0 mg/kg/injection, schedule: Q01DX015 (ip), vehicle: saline). Further, the T/C is 162 % of control under setting [10] and 124 % of control (dose: 150.0 mg/kg/injection, schedule: Q01DX001 (ip), vehicle: saline).
As to `O=C1/C(=C/c2ccccc2)CCC2CCCCC12` (stereo not drawn), the T/C was 94 % of control under setting [14], 100 % of control under setting [16] and 94 % of control under setting [18].
Take `C[Si](C)(O[Si](C)(C)C1C=CC=C1)C1C=CC=C1`: the T/C was 91 % of control (dose: 12.5 mg/kg/injection, schedule: Q01DX001 (ip), vehicle: Klucel (hydroxypropylcellulose) (HPC)); 91 % of control (dose: 25.0 mg/kg/injection, schedule: Q01DX001 (ip), vehicle: Klucel (hydroxypropylcellulose) (HPC)); 88 % of control (dose: 50.0 mg/kg/injection, schedule: Q01DX001 (ip), vehicle: Klucel (hydroxypropylcellulose) (HPC)).
As for `COc1ccc(CN2CCCN(Cc3ccc(OC)cc3OC)C2c2ccccc2F)c(OC)c1`, the T/C is, setting by setting: (dose: 50.0 mg/kg/injection, schedule: Q01DX001 (ip), vehicle: saline) 96 % of control; under setting [10], 96 % of control; under setting [11], 89 % of control; under setting [12], 94 % of control.
As to `O=CNCCNC=O`, the T/C is 102 % of control under setting [4], 104 % of control under setting [6] and 98 % of control under setting [8].
Regarding `C/C(=N/OC(=O)N(C)C)c1cc(Cl)ccc1Cl`, the T/C under setting [10] is 100 % of control and the T/C under setting [11] is 100 % of control.
`CC(=O)Nc1ccn(CC(=O)c2ccco2)c(=O)n1`: the T/C by setting is: under setting [13], 102 % of control; under setting [14], 98 % of control; under setting [15], 102 % of control; under setting [16], 90 % of control; under setting [17], 104 % of control; under setting [18], 93 % of control.
With `CCOC(=O)C(C)(C)OC(=O)Nc1ccccc1`, the T/C is 98 % of control (dose: 100.0 mg/kg/injection, schedule: Q04DX003 (ip), vehicle: Klucel (hydroxypropylcellulose) (HPC)); 91 % of control (dose: 200.0 mg/kg/injection, schedule: Q04DX003 (ip), vehicle: Klucel (hydroxypropylcellulose) (HPC)); 98 % of control (dose: 400.0 mg/kg/injection, schedule: Q04DX003 (ip), vehicle: Klucel (hydroxypropylcellulose) (HPC)).
In the case of `O=C(C1CCC2c3ccccc3CCC2C1C(=O)N1CCCCC1)N1CCCCC1` (stereo not drawn), the T/C was 103 % of control under setting [1], 101 % of control under setting [2] and 108 % of control under setting [3].
Regarding `O=c1cc(Oc2ccccc2)[nH]c(=O)[nH]1`, the T/C by setting is: (dose: 65.0 mg/kg/injection, schedule: Q01DX001 (ip), vehicle: Klucel (hydroxypropylcellulose) (HPC)) 112 % of control; (dose: 130.0 mg/kg/injection, schedule: Q01DX001 (ip), vehicle: Klucel (hydroxypropylcellulose) (HPC)) 93 % of control; (dose: 260.0 mg/kg/injection, schedule: Q01DX001 (ip), vehicle: Klucel (hydroxypropylcellulose) (HPC)) 93 % of control.
Turning to `N#Cc1c(/N=C/c2ccccc2Cl)sc2c1CCC2`, the T/C runs as follows: (dose: 100.0 mg/kg/injection, schedule: Q04DX002 (ip), vehicle: saline with Tween-80) 91 % of control; (dose: 200.0 mg/kg/injection, schedule: Q04DX002 (ip), vehicle: saline with Tween-80) 105 % of control; (dose: 400.0 mg/kg/injection, schedule: Q04DX002 (ip), vehicle: saline with Tween-80) 91 % of control.
For the compound `O=C(Nc1cccc(C(F)(F)F)c1)Oc1ccccc1F`, the T/C runs as follows: (dose: 100.0 mg/kg/injection, schedule: Q01DX009 (ip), vehicle: Klucel (hydroxypropylcellulose) (HPC)) 91 % of control; (dose: 200.0 mg/kg/injection, schedule: Q01DX009 (ip), vehicle: Klucel (hydroxypropylcellulose) (HPC)) 92 % of control.
